Test results taken from patent publication US20230146455A1, “TREATMENT OF INFLAMMATORY DISEASES WITH PEPTIDES AND PHARMACEUTICAL COMPOSITIONS” (Yuyu Pharma, Inc., priority 2020, published 2023).
Values joined by “and” are separate entries in the source; they are usually repeats but may differ in a detail not shown here. Equal entries are not always repeated. Where a SMILES comes first, the peptide text is derived from it. [ ]: non-standard residue; d: D form. Hyp = O=C(O)[C@@H]1C[C@@H](O)CN1

Legend:
CCL3/MIP-1 alpha = experiment: Example 9 Luminex, LPS hPBMCs: CCL3/MIP-1 alpha; type: cell-based, human
Procedure: (§1) Treatment Human PBMCs were pretreated with YY-101, YDE-011 and YDE-043 or reference compound; Xiidra® at various concentration (ranging from 1 nM to 100 uM) for 2 h before stimulation. An equal volume of 0.5% DMSO was used as a vehicle control. Then, the cells were treated with LPS at 5 ug/ml. The supernatants from treated cells were harvested at 24 h and placed in a 96 well for Luminex cytokine & chemokine profiling using a Luminex 200 multiplex assay (Luminex; R&D system, USA).
(§2) The main study arm with triplicate wells per group in a 24-well plate: • 1. Blank • 2. PBMC: 0.5% DMSO • 3. PBMC+LPS (5 ug/ml) • 4. PBMC+YY-101 100 uM • 5. PBMC+YY-101 10 uM • 6. PBMC+YY-101 1 uM • 7. PBMC+YY-101 0.1 uM • 8. PBMC+YY-101 0.01 uM • 9. PBMC+LPS (5 ug/ml)+Xiidra®100 uM • 10. PBMC+LPS (5 ug/ml)+Xiidra® 10 uM • 11. PBMC+LPS (5 ug/ml)+Xiidra® 1 uM • 12. PBMC+LPS (5 ug/ml)+Xiidra®0.1 uM • 13. PBMC+LPS (5 ug/ml)+Xiidra®0.01 uM • 14. PBMC+LPS (5 ug/ml)+Xiidra®0.001 uM • 15. PBMC+LPS (5 ug/ml)+YY-101 100 uM • 16. PBMC+LPS (5 ug/ml)+YY-101 10 uM • 17. PBMC+LPS (5 ug/ml)+YY-101 1 uM • 18. PBMC+LPS (5 ug/ml)+YY-101 0.1 uM • 19. PBMC+LPS (5 ug/ml)+YY-101 0.01 uM • 20. PBMC+LPS (5 ug/ml)+YY-101 0.001 uM • 21. PBMC+LPS (5 ug/ml)+YDE-011 100 uM • 22. PBMC+LPS (5 ug/ml)+YDE-011 10 uM • 23. PBMC+LPS (5 ug/ml)+YDE-011 1 uM • 24. PBMC+LPS (5 ug/ml)+YDE-011 0.1 uM • 25. PBMC+LPS (5 ug/ml)+YDE-011 0.01 uM • 26. PBMC+LPS (5 ug/ml)+YDE-011 0.001 uM • 27. PBMC+LPS (5 ug/ml)+YDE-043 100 uM • 28. PBMC+LPS (5 ug/ml)+YDE-043 10 uM • 29. PBMC+LPS (5 ug/ml)+YDE-043 1 uM • 30. PBMC+LPS (5 ug/ml)+YDE-043 0.1 uM • 31. PBMC+LPS (5 ug/ml)+YDE-043 0.01 uM • 32. PBMC+LPS (5 ug/ml)+YDE-043 0.001 uM
(§3) Multiplex assay was used to measure 30 cytokines and chemokines. The 1:2, 1:10 and 1:200 diluted cell supernatant and serial dilution of the standard were dispensed into a 96 well plate at 50 ul/well. Then, the pre-mixed cocktail of antibody-coated magnetic beads was dispensed at 50 ul/well and incubated at room temperature for 2 h in a horizontal orbital microplate shaker at 800±500 rpm. The beads were washed using a magnetic device to prevent loss. The biotin-antibody was dispensed in 50 ul of each well and incubated at room temperature for 1 h in a shaker at 800±500 rpm. After washing, streptavidin-PE was added at 50 ul/well and incubated at room temperature for 30 min in a shaker under the same conditions. Finally, after washing, wash buffer (100 ul/well) was added to the plate and incubated in a shaker for 2 min. The Luminex™ 200 setting were set according to the manufacturer's protocol. The data was calculated with a standard five-parameter logistic nonlinear regression analysis of the data (xPonent software 4.2, USA). The levels of cytokine/chemokine are normalized to the live cell counts (1×10^5 cells/mL) and presented as concentrations per mL (pg/mL or ng/mL).

TIMP-1 = experiment: Example 9 Luminex, LPS hPBMCs: TIMP-1; type: cell-based, human; details: PBMC + LPS(5 ug/ml)
Procedure: as §1, §2, §3

[1] = PBMC + LPS(5 ug/ml) + test article 0.001 uM, Mean
[2] = PBMC + LPS(5 ug/ml) + test article 0.001 uM, individual replicates
[3] = PBMC + LPS(5 ug/ml) + test article 0.01 uM, Mean
[4] = PBMC + LPS(5 ug/ml) + test article 0.01 uM, individual replicates
[5] = PBMC + LPS(5 ug/ml) + test article 0.1 uM, Mean
[6] = PBMC + LPS(5 ug/ml) + test article 0.1 uM, individual replicates
[7] = PBMC + LPS(5 ug/ml) + test article 1 uM, Mean
[8] = PBMC + LPS(5 ug/ml) + test article 1 uM, individual replicates
[9] = PBMC + LPS(5 ug/ml) + test article 10 uM, Mean
[10] = PBMC + LPS(5 ug/ml) + test article 10 uM, individual replicates
[11] = PBMC + LPS(5 ug/ml) + test article 100 uM, Mean
[12] = PBMC + LPS(5 ug/ml) + test article 100 uM, individual replicates
[13] = PBMC + test article 1 uM, no LPS, Mean
[14] = PBMC + test article 1 uM, no LPS, individual replicates
[15] = PBMC + test article 10 uM, no LPS, Mean
[16] = PBMC + test article 10 uM, no LPS, individual replicates
[17] = PBMC + test article 100 uM, no LPS, Mean
[18] = PBMC + test article 100 uM, no LPS, individual replicates
[19] = test article 0.001 uM, single replicates
[20] = test article 0.01 uM, single replicates

CC(C)C[C@H](NC(=O)CNC(=O)[C@H](CC(=O)O)NC(=O)[C@H](CCC(N)=O)NC(=O)CNC(=O)[C@@H]1C[C@@H](O)CN1)C(=O)N[C@@H](C)C(=O)NCC(=O)N1CCC[C@H]1C(=O)N[C@@H](CCCCN)C(=O)O [YY-101] (H-[Hyp]GQDGLAGPK-OH; N-terminus and C-terminus assumed)
Concentration (CCL3/MIP-1 alpha; [1]): 26885.9 pg/mL | conc/live cell (CCL3/MIP-1 alpha; [1]): 4200.1 pg/10^5 | Concentration (CCL3/MIP-1 alpha; [2]): 27986.1 pg/mL and 27195.8 pg/mL and 25475.7 pg/mL | conc/live cell (CCL3/MIP-1 alpha; [2]): 4909.8 pg/10^5 and 3830.4 pg/10^5 and 3860.0 pg/10^5 | Concentration (CCL3/MIP-1 alpha; [3]): 28932.4 pg/mL | conc/live cell (CCL3/MIP-1 alpha; [3]): 4694.7 pg/10^5 | Concentration (CCL3/MIP-1 alpha; [4]): 29329.0 pg/mL and 29395.7 pg/mL and 28072.3 pg/mL | conc/live cell (CCL3/MIP-1 alpha; [4]): 4582.7 pg/10^5 and 4899.3 pg/10^5 and 4602.0 pg/10^5 | Concentration (CCL3/MIP-1 alpha; [5]): 28457.4 pg/mL | conc/live cell (CCL3/MIP-1 alpha; [5]): 4886.3 pg/10^5 | Concentration (CCL3/MIP-1 alpha; [6]): 28362.4 pg/mL and 28665.1 pg/mL and 28344.5 pg/mL | conc/live cell (CCL3/MIP-1 alpha; [6]): 4574.6 pg/10^5 and 5512.5 pg/10^5 and 4571.7 pg/10^5 | Concentration (CCL3/MIP-1 alpha; [7]): 28059.0 pg/mL | conc/live cell (CCL3/MIP-1 alpha; [7]): 4314.1 pg/10^5 | Concentration (CCL3/MIP-1 alpha; [8]): 28714.8 pg/mL and 27440.0 pg/mL and 28022.0 pg/mL | conc/live cell (CCL3/MIP-1 alpha; [8]): 4557.9 pg/10^5 and 3864.8 pg/10^5 and 4519.7 pg/10^5 | Concentration (CCL3/MIP-1 alpha; [9]): 29972.3 pg/mL | conc/live cell (CCL3/MIP-1 alpha; [9]): 4549.0 pg/10^5 | Concentration (CCL3/MIP-1 alpha; [10]): 30117.5 pg/mL and 30769.7 pg/mL and 29029.8 pg/mL | conc/live cell (CCL3/MIP-1 alpha; [10]): 5019.6 pg/10^5 and 4807.8 pg/10^5 and 3819.7 pg/10^5 | Concentration (CCL3/MIP-1 alpha; [11]): 33310.8 pg/mL | conc/live cell (CCL3/MIP-1 alpha; [11]): 5765.5 pg/10^5 | Concentration (CCL3/MIP-1 alpha; [12]): 35374.6 pg/mL and 31775.7 pg/mL and 32782.2 pg/mL | conc/live cell (CCL3/MIP-1 alpha; [12]): 5615.0 pg/10^5 and 5125.1 pg/10^5 and 6556.4 pg/10^5 | conc/live cell (CCL3/MIP-1 alpha; PBMC + test article 0.01 uM, no LPS, Mean): 0.0 pg/10^5 | conc/live cell (CCL3/MIP-1 alpha; PBMC + test article 0.1 uM, no LPS, Mean): 0.0 pg/10^5 | Concentration (CCL3/MIP-1 alpha; [13]): 588.0 pg/mL | conc/live cell (CCL3/MIP-1 alpha; [13]): 53.5 pg/10^5 | Concentration (CCL3/MIP-1 alpha; [14]): 588.0 pg/mL | conc/live cell (CCL3/MIP-1 alpha; [14]): 106.9 pg/10^5 and 0.0 pg/10^5 | Concentration (CCL3/MIP-1 alpha; [15]): 1997.0 pg/mL | conc/live cell (CCL3/MIP-1 alpha; [15]): 156.0 pg/10^5 | Concentration (CCL3/MIP-1 alpha; [16]): 1997.0 pg/mL | conc/live cell (CCL3/MIP-1 alpha; [16]): 312.0 pg/10^5 and 0.0 pg/10^5 | Concentration (CCL3/MIP-1 alpha; [17]): 1030.2 pg/mL | conc/live cell (CCL3/MIP-1 alpha; [17]): 80.5 pg/10^5 | Concentration (CCL3/MIP-1 alpha; [18]): 1030.2 pg/mL | conc/live cell (CCL3/MIP-1 alpha; [18]): 161.0 pg/10^5 and 0.0 pg/10^5 | TIMP-1 Concentration (TIMP-1; test article 0.001 uM, Mean): 2635.9 pg/mL | TIMP-1 MFI (TIMP-1; test article 0.001 uM, Mean): 1569.7 | TIMP-1 conc/live cell (TIMP-1; test article 0.001 uM, Mean): 411.8 pg/10^5 | TIMP-1 Concentration (TIMP-1; [19]): 2670.8 pg/mL and 2497.3 pg/mL and 2739.7 pg/mL | TIMP-1 MFI (TIMP-1; [19]): 1596.0 and 1464.5 and 1648.5 | TIMP-1 conc/live cell (TIMP-1; [19]): 468.6 pg/10^5 and 351.7 pg/10^5 and 415.1 pg/10^5 | TIMP-1 Concentration (TIMP-1; test article 0.01 uM, Mean): 2651.1 pg/mL | TIMP-1 MFI (TIMP-1; test article 0.01 uM, Mean): 1581.2 | TIMP-1 conc/live cell (TIMP-1; test article 0.01 uM, Mean): 430.2 pg/10^5 | TIMP-1 Concentration (TIMP-1; [20]): 2636.0 pg/mL and 2552.3 pg/mL and 2765.2 pg/mL | TIMP-1 MFI (TIMP-1; [20]): 1569.5 and 1506.0 and 1668.0 | TIMP-1 conc/live cell (TIMP-1; [20]): 411.9 pg/10^5 and 425.4 pg/10^5 and 453.3 pg/10^5 | TIMP-1 Concentration (TIMP-1; test article 0.1 uM, Mean): 2599.6 pg/mL | TIMP-1 MFI (TIMP-1; test article 0.1 uM, Mean): 1542.0
